Measured values reported in patent US20130245116A1, “COMPOSITIONS AND METHODS FOR THE DISRUPTION OF MYCOBACTERIUM BIOFILM” (priority 2011, published 2013).

System: M. smegmatis mc^2155 biofilm
Assay: Assay for M. smegmatis biofilm inhibition (pellicle formation in M63 medium)
Assay type: cell-based
Procedure: Two ml of 7H9/ADC culture medium was inoculated with […] of a starter culture of M. smegmatis mc^2155 in 40% glycerol and incubated at 37° C. without shaking for 16-24 hr. This culture was transferred into 10 ml of GAS medium and incubated in the incubator/shaker at 37° C. to an absorbance at 650 nm of <1.5, diluted to an absorbance of 0.02-0.03 in M63 culture medium. Then aliquots of 2.0 ml of this inoculated M63 medium were placed in sterile 1.5×10-cm glass tubes and the purified compounds to be tested were added. The test tubes were incubated in the heat block at 37° C. for 3 to 7 days. Pellicles began to form at the air-liquid interface of control culture on day-2, the pellicle thickened and cells began climbing up the surface of the glass. Such pellicles are recognized as biofilm. In the biofilm inhibition assay, the purified compounds dissolved in CM (2:1) were added at zero time and the development of biofilm was recorded on day-3 and -4.
In the biofilm inhibition assay, control culture began developing a smooth surface growth after two days and the cells began to climb up the wall of the tube. The surface growth continued and thickened over days-4 and -5. There was no observable submerged growth in the M63 medium over this period. […] After this period, rough surface pellicles began to appear along with some submerged growth (planktonic growth).

Substance	concentration for complete inhibition of M. smegmatis biofilm formation [µg/mL]	biological activity in M. smegmatis biofilm inhibition assay (concentration not given)
C16:3-fatty acyl-/C25-mycocerosyl-phthiotriol diester	12.5	
Trehalose monomycolate [TMM, reference compound]		not active
